Results taken from patent US11370766B2, “Sulfonyl amidine as indoleamine-2,3-dioxygenase inhibitor, and preparation method therefor and use thereof” (SHANGHAI LONGWOOD BIOPHARMACEUTICALS CO., LTD., priority 2016, dated 2022).
Like-named read-outs stand apart in the source and are kept apart here. Each block holds one compound with its values, some of them ahead of it.

Experiments:
[1] = tested on: mouse colorectal cancer CT26 transplanted tumor; test: In vivo efficacy test of mouse colorectal cancer CT26 transplanted tumor
Description: Example 5 In Vivo Efficacy Test of Mouse Colorectal Cancer CT26 Transplanted Tumor
Under sterile conditions, CT26 cells in the proliferative phase were harvested, cell concentration was adjusted after digestion, and inoculated into the right hind limb of the mouse. Each mouse was inoculated with 1×10^5 CT26 cells in an inoculation volume of 0.1 mL. Four days after the inoculation, the average tumor volume was close to 20-30 mm^3, and the mouse was administered in a randomized group. The day of administration was recorded as DO, and the negative control was given same amount of vehicle. Co-administration of LW 105-1-1 with Anti-CTLA4 antibody was also tested in this experiment. After the administration was started, the tumor long diameter and short diameter were measured 3 times per week.

IDO1 = target: T1, IDO1 (Homo sapiens, UniProt P14902); test: IDO1 enzyme activity test (NFK Green); type: biochemical; details: 10 nM IDO1, 100 uM L-tryptophan, NFK green fluorescence; read-out: IDO IC50
T1 construct: purchased NTRC NTRC-hTDO-1K
T1 sequence (P14902 whole entry): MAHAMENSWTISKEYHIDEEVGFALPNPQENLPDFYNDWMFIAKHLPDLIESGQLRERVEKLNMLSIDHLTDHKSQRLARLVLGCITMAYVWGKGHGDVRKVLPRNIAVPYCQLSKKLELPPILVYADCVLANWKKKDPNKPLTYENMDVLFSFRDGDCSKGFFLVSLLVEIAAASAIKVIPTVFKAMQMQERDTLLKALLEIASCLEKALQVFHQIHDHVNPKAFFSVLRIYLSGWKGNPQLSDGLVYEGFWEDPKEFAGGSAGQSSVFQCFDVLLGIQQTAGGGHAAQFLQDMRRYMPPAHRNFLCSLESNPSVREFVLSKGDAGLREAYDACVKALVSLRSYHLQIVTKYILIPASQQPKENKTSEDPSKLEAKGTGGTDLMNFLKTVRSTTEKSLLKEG
Description: 1. IDO1 Enzyme Activity Test Method (NFK Green)
Content of research: the inhibitory effect of the compound on the activity of IDO1 enzyme was examined.
IDO assay kit (NTRC, Cat. No. NTRC-hTDO-1K), DMSO (Sigma, Cat. No. D2650), 384-well plate_compound dilution plate (Greiner, Cat. No. 781280), 384-well plate_test plate (Perkin Elmer, Cat. No. 6007299)
10 nM IDO1 was incubated with compound or DMSO at 23° C. for 30 minutes, and L-type tryptophan was added at a final concentration of 100 uM and reacted for 1.5 hours. NFK green was added and incubated at 37° C. for 4 hours, and fluorescence signal data (excitation band, 400/25; emission band, 510/20) was corrected with Envision. Data analysis and mapping was conducted by XLfit5 software.
The test compounds and the reference compound LW3018 were finally tested at concentrations ranging from […] to 0.51 nM, 3-fold gradient dilution, 10 concentrations, and two replicate wells.

[2] = Pharmacokinetics of LW105-1-1 in mice; type: in vivo; details: plasma, male C57BL/6 mice; for AUC(0-t): male, C57BL/6, mouse; for MRT last: read-out: MRT0-last; for bioavailability: after dose standardization, read-out: F% (absolute bioavailability); for Cmax: read-out: Cmax (head printed as image)
Description: 18 male C57BL/6 mice were intragastrically or intravenously administered with compound LW105-1-1 (Table 3).
The preparation containing 5% DMA and 20% HPbCD aqueous solution as a solvent was administered by intravenous injection, and a preparation containing a solution comprising 5% DMA, 20% HPbCD and 0.1% CREMOPHOR EL as a solution was intragastrically administered. The animal strain was male C57BL/6 mice. Prior to the animal experiment, all animals were fasted and fed 4 hours after dosing; all animals were given free access to water.
Intravenous administration group: before administration, 0.083, 0.25, 0.5, 1, 2, 4, 8 and 24 hours after.
Oral administration group: before administration, 0.25, 0.5, 1, 2, 4, 8 and 24 hours after
Whole blood samples (0.03 mL) were collected from the saphenous vein at the indicated time (or other suitable blood collection sites), and all blood samples were added to a plastic centrifuge tube pre-filled with K2-EDTA anticoagulant and labeled. After the blood sample was collected, centrifuged for 10 minutes under 2 to 8° C. at 3000 g, and the supernatant plasma was aspirated, and quickly placed in dry ice, and kept at −20° C. or lower for LC-MS/MS analysis.
The concentrations of all samples were analyzed using LC-MS/MS. Plasma mean concentrations were processed using a non-compartmental model of WinNonlin™ Version 6.3 (Pharsight, Mountain View, Calif.) pharmacokinetic software, and pharmacokinetic parameters were calculated by linear logarithmic trapezoidal method.

IDO1 in Hela cells = target: T2, IDO1 in Hela cells (Homo sapiens, UniProt P14902); test: IDO cytology test (LC-MS), kynurenine in IFN-gamma-stimulated Hela cells; type: cell-based; details: interferon gamma 100 ng/mL, 20 h, kynurenine by LC/MS
T2 construct: endogenous in cells; host or cells: Hela cells, IFN-gamma stimulated
T2 sequence (P14902 whole entry): as above
Text: 2. IDO Cytology Test Method (LC-MS)
Content of research: the inhibitory effect of the compound on the activity of IDO1 in Hela cells was examined.
RPMI 1640 (phenol red free) medium (Invitrogen Cat. No. 11835030), fetal bovine serum (Invitrogen Cat. No. 10099141), penicillin and streptomycin (Invitrogen Gibco Cat. No. 15140-122), recombinant human interference γ (R&D system, Cat. No. 285-IF-100). 5% (w/v) trichloroacetic acid (Alfa Aesar Cat. No. A11156), DMSO (Sigma, Cat. No. D2650), 96-well plate_compound dilution plate (Axygen, Cat. No. WIPP02280), 96-well plate_test plate (Greiner, Cat. No. 655090)
The test compounds and the reference compound LW3018 were finally tested at concentrations ranging from […] to 0.76 nM, 3-fold gradient dilution, 9 concentrations, and two replicate wells.
Hela cells were plated in 96-well cell culture plates at a number of 40,000 cells per well, and incubated with RPMI 1640 containing 10% fetal bovine serum for 5-6 hours. The diluted test compound and recombinant human interferon gammaa (final concentration at 100 ng/mL) were added to activate IDO1 expression. The cells were cultured in a 37° C. cell incubator which was enriched with 5% carbon dioxide for 20 hours, and the reaction was stopped with 5% trichloroacetic acid and incubated for 30 minutes at 50° C. After the cell culture solution was precipitated, the supernatant was sent to LC/MS to detect the content of kynurenine. Data analysis and mapping was conducted by XLfit5 software.

IC50 (IDO1): 22.3 nM
AUC(0-t) ([2]; iv, 3 mg/kg, intravenous 3 mg/kg): 1430 ng·h/mL
AUC(0-t) ([2]; po, 30 mg/kg, oral gavage 30 mg/kg): 10100 ng·h/mL
AUC(0-t) ([2]; po, 100 mg/kg, oral gavage 100 mg/kg): 39400 ng·h/mL
half-life ([2]; mouse, 3 mg/kg, heading: T1/2, intravenous 3 mg/kg): 0.688 h
AUC(0-inf) ([2]; mouse, intravenous 3 mg/kg): 1450 ng·h/mL
C0 ([2]; mouse, intravenous 3 mg/kg): 2560 ng/mL
clearance ([2]; mouse, intravenous 3 mg/kg): 34.5 mL/min/kg
MRT last ([2]; mouse, intravenous 3 mg/kg): 0.904 h
Vd ([2]; mouse, intravenous 3 mg/kg, read-out: steady-state volume (Vdss)): 1.87 L/kg
AUC(0-inf) ([2]; mouse, oral gavage 30 mg/kg): 10100 ng·h/mL
Tmax ([2]; mouse, oral gavage 30 mg/kg): 0.5 h
bioavailability ([2]; mouse, oral gavage 30 mg/kg): 69.9%
Cmax ([2]; mouse, oral gavage 30 mg/kg): 4810 ng/mL
MRT last ([2]; mouse, oral gavage 30 mg/kg): 3.11 h
half-life ([2]; mouse, oral gavage 30 mg/kg, read-out: T1/2 (converted)): 2.7 h
AUC(0-inf) ([2]; mouse, oral gavage 100 mg/kg): 39300 ng·h/mL
Tmax ([2]; mouse, oral gavage 100 mg/kg): 0.25 h
bioavailability ([2]; mouse, oral gavage 100 mg/kg): 81.4%
Cmax ([2]; mouse, oral gavage 100 mg/kg): 20700 ng/mL
MRT last ([2]; mouse, oral gavage 100 mg/kg): 1.99 h
half-life ([2]; mouse, oral gavage 100 mg/kg, read-out: T1/2 (converted)): 2.11 h
IC50 (IDO1 in Hela cells): 11.5 nM
Compound: CS(=N)(=O)NCCNc1nonc1C(=NO)Nc1ccc(F)c(Br)c1 (racemic) [LW105-1-1]
tumor inhibition rate ([1]; mouse CT26 model, 300 mg/kg oral twice a day): 40.6%
anti-tumor growth effect ([1]; mouse CT26 model, 30, 100, 300 mg/kg oral): dose-dependent anti-tumor growth effect

IC50 (IDO1): 29.4 nM
IC50 (IDO1 in Hela cells): 7.2 nM
Compound: N=S(=O)(NCCNc1nonc1C(=NO)Nc1ccc(F)c(Br)c1)C1CC1 (stereo not drawn) [LW105-1-4]

IC50 (IDO1): 25.2 nM
IC50 (IDO1 in Hela cells): 15.6 nM
Compound: CCS(=N)(=O)NCCNc1nonc1C(=NO)Nc1ccc(F)c(Br)c1 (stereo not drawn) [LW105-1-2]

IC50 (IDO1): 26.5 nM
IC50 (IDO1 in Hela cells): 11.1 nM
Compound: CS(=N)(=O)NCCCNc1nonc1C(=NO)Nc1ccc(F)c(Br)c1 (stereo not drawn) [LW105-1-11]

IC50 (IDO1): 19.4 nM
IC50 (IDO1 in Hela cells): 12.7 nM
Compound: CC(C)S(=N)(=O)NCCNc1nonc1C(=NO)Nc1ccc(F)c(Br)c1 (stereo not drawn) [LW105-1-3]
